Reference: patent US9113629B2, “4-amino-6-(4-substituted-phenyl)-picolinates and 6-amino-2-(4-substituted-phenyl)-pyrimidine-4-carboxylates and their use as herbicides” (DOW AGROSCIENCES LLC, priority 2013, dated 2015)
Where two headings read alike, the source gives them in different places.

Tests used:
[1] = tested on: Key Broadleaf Weed and Crop Species; experiment: Post-emergent Test II herbicidal activity (Table 5); format: in vivo; settings: post-emergence, 336 h, post-emergent, 14 days after application; for pest or weed control at 70 g/ha: 70 g ai/ha; for pest or weed control at 140 g/ha: 140 g ai/ha
Procedure, shortened: (§1)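 Greenhouse-grown plants at first or second true leaf stage were sprayed post-emergence with compound in acetone/DMSO-based aqueous spray containing crop oil concentrate and surfactant, at 187 L/ha, highest rate plus ½× to 1/16× dilutions. After 14 d, injury was scored visually versus untreated plants, 0 (none) to 100% (complete kill).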

[2] = tested on: Key Grass and Sedge Weeds as well as Grass Crops; experiment: Post-emergent Test II herbicidal activity (Table 6); format: in vivo; settings: post-emergence, 336 h; for pest or weed control at 70 g/ha: application rate 70 g ai/ha; for pest or weed control at 140 g/ha: application rate 140 g ai/ha
Procedure, shortened: as §1

[3] = ABUTH: velvetleaf (Abutilon theophrasti), read-out: Visual Growth Reduction (%) 14 Days After Application ABUTH
[4] = AMARE: redroot pigweed (Amaranthus retroflexus), read-out: Visual Growth Reduction (%) 14 Days After Application AMARE
[5] = BRSNN: oilseed-rape, canola (Brassica napus), read-out: Visual Growth Reduction (%) 14 Days After Application BRSNN
[6] = CHEAL: lambsquarters (Chenopodium album), read-out: Visual Growth Reduction (%) 14 Days After Application CHEAL
[7] = EPHHL: wild poinsettia (Euphorbia heterophylla), read-out: Visual Growth Reduction (%) 14 Days After Application EPHHL
[8] = HELAN: sunflower (Helianthus annuus), read-out: Visual Growth Reduction (%) 14 Days After Application HELAN
[9] = VIOTR: wild pansy (Viola tricolor), read-out: Visual Growth Reduction (%) 14 Days After Application VIOTR
[10] = Triticum aestivum, TRZSS (wheat), read-out: Visual Growth Reduction (%) 14 Days After Application, TRZSS
[11] = CYPES: yellow nutsedge (Cyperus esculentus), read-out: Visual Growth Reduction (%) 14 Days After Application, CYPES
[12] = DIGSA: crabgrass (Digitaria sanguinalis), read-out: Visual Growth Reduction (%) 14 Days After Application, DIGSA
[13] = ECHCG: barnyardgrass (Echinochloa crus-galli), read-out: Visual Growth Reduction (%) 14 Days After Application, ECHCG
[14] = ORYSA: rice (Oryza sativa), read-out: Visual Growth Reduction (%) 14 Days After Application, ORYSA
[15] = SETFA: giant foxtail (Setaria faberi), read-out: Visual Growth Reduction (%) 14 Days After Application, SETFA
[16] = SORVU: grain sorghum (Sorghum vulgare), read-out: Visual Growth Reduction (%) 14 Days After Application, SORVU
[17] = ZEAMX: maize, corn (Zea mays), read-out: Visual Growth Reduction (%) 14 Days After Application, ZEAMX

For `C=Cc1c(C(=O)O)nc(-c2ccc(C(F)(F)F)c(F)c2F)c(F)c1N` [Compound 61], the pest or weed control at 70 g/ha [1, 3] was 85 to 94%, the pest or weed control at 140 g/ha [1, 3] was 95 to 100% and the pest or weed control at 70 g/ha [1, 4] was 95 to 100%. It also gave a pest or weed control at 140 g/ha [1, 4] of 95 to 100%, a pest or weed control at 70 g/ha [1, 5] of 0 to 29% and a pest or weed control at 140 g/ha [1, 5] of 0 to 29%. For the same compound, the pest or weed control at 70 g/ha [1, 6] was 75 to 84%, the pest or weed control at 140 g/ha [1, 6] was 85 to 94% and the pest or weed control at 70 g/ha [1, 7] was 95 to 100%. It also gave a pest or weed control at 140 g/ha [1, 7] of 95 to 100%, a pest or weed control at 70 g/ha [1, 8] of 95 to 100% and a pest or weed control at 140 g/ha [1, 8] of 95 to 100%. For the same compound, the pest or weed control at 70 g/ha [1, 9] was 0 to 29%, the pest or weed control at 140 g/ha [1, 9] was 0 to 29% and the pest or weed control at 70 g/ha [2, 10] was 30 to 44%. For the same compound, the pest or weed control at 140 g/ha [2, 10] was 30 to 44%, the pest or weed control at 70 g/ha [2, 11] was 45 to 59% and the pest or weed control at 140 g/ha [2, 11] was 45 to 59%. The pest or weed control at 70 g/ha [2, 12] was 0 to 29%, the pest or weed control at 140 g/ha [2, 12] was 0 to 29% and the pest or weed control at 70 g/ha [2, 13] was 45 to 59%. The pest or weed control at 140 g/ha [2, 13] was 60 to 74%, the pest or weed control at 70 g/ha [2, 14] was 0 to 29% and the pest or weed control at 140 g/ha [2, 14] was 0 to 29%. It also gave a pest or weed control at 70 g/ha [2, 15] of 0 to 29%, a pest or weed control at 140 g/ha [2, 15] of 0 to 29% and a pest or weed control at 70 g/ha [2, 16] of 45 to 59%. For the same compound, the pest or weed control at 140 g/ha [2, 16] was 60 to 74%, the pest or weed control at 70 g/ha [2, 17] was 60 to 74% and the pest or weed control at 140 g/ha [2, 17] was 60 to 74%.
